Kd data for one compound are collected here from publication PMC6449043 (ACS chemical biology, 2018).

This experiment concerns the target ndSQR (sulfide quinone oxidoreductase in nanodiscs) (Homo sapiens, UniProt Q9Y6N5). Briefly: spectral titration of charge-transfer complex at […] nm. It counts as binding.

Structures are written as SMILES.

Sequence of ndSQR (sulfide quinone oxidoreductase in nanodiscs) (Q9Y6N5 42-450): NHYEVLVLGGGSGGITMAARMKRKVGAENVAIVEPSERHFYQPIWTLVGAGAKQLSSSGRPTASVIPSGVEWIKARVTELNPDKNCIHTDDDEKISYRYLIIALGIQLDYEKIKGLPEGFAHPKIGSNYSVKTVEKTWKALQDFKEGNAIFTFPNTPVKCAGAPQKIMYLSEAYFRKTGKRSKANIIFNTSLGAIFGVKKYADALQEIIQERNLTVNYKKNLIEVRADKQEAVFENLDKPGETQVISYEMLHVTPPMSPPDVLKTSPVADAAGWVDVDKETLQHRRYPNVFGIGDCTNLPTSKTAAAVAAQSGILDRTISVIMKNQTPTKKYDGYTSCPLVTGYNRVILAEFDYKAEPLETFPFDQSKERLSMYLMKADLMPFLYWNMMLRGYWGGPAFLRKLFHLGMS

Compound `CS` [MeSH] yielded a dissociation constant Kd of 38 ± 1 µM.
